What was measured:
[1] = tested on: IL-21 secretion from human CD4+ T cells; experiment: Suppression of IL-21 secretion by activated Th17 cells (ALPHALISA); type: cell-based; conditions: 120 h; human CD4+ T cells under Th17 stimulation, 5 days
Source text: IL-21 is a pro-inflammatory cytokine secreted by CD4^+ Th17 cells and is thought to serve as a T-cell growth factor playing overlapping roles with IL-2. This Example describes a study that measured the IC50 values of the indole compounds disclosed herein for suppressing IL-21 secretion from human CD4^+ T cells that had been treated with stimulatory conditions that gave rise to TH17 cells (see, e.g., Dobritsa et al., J Biomol Screen. 18(1):75-84 (2013)).
Human CD4^+ T cells were purchased from Lonza Walkersville Inc. (Walkersville, MD). DMSO was obtained from Sigma (St. Louis, MO). Greiner cell culture plates, Gibco DMEM cell culture medium, media supplements, and antibiotics, as well as DYNABEADS Human T-Activator CD3/CD28 and R&D Systems TGF-β, IL-1β and IL-23 and Invitrogen IL-6 cytokines, were purchased through Fisher Scientific (Pittsburgh, PA). ALPHALISA assay plates and the Human Interleukin-21 ALPHALISA kit was obtained from Perkin Elmer (Boston, MA).
Cell culture plates were pre-coated with test compounds in serial dilutions for generating a 10-point, 3-fold dose response curve with a top concentration of 1 μM or 100 nM. To do this, compounds were dissolved in DMSO and added to an ECHO qualified plate for transfer to the cell culture plate with the ECHO555. The indole compounds to be tested were dissolved in […] and wells were backfilled with DMSO so that all treatments received 0.1% DMSO final volume. Positive control (0% inhibition) wells, in which compounds were replaced with […], were included on each plate. At least 15×10^6 frozen CD4^+ T cells per plate of compounds were thawed in a 37° C. water bath, and the cells were washed twice with 10 mL of the complete medium (DMEM supplemented with 10% fetal bovine serum (FBS), 100 U/mL penicillin, and 100 μg/mL streptomycin), followed by centrifugation (250×g, 10 min). Cells were re-suspended to the desired density, and cultured in 384-well treated sterile cell culture plates in a total volume of 50 μL per well. Each plate included wells with induced and un-induced cells.
Induced cells were activated in the complete medium with DYNABEADS Human T-Activator CD3/CD28 at a bead-to-cell ratio of 1:2.5 and stimulated with the following cytokines: transforming growth factor-β (TGF-β, 5 ng/mL), IL-6 (20 ng/mL), IL-23 (20 ng/mL), and IL-1β (10 ng/mL).
Un-induced cells were left in complete medium with no additional supplements. Plates were incubated at 37° C., 5% CO2 for a total of 5 days. Upon completion of the 5 day incubation period, cells were spun down (1,000×g, 1 min) and supernatant was transferred to the ALPHALISA assay plate using the Mosquito HTS liquid handler (TTP Labtech Inc., Cambridge, MA).
IL-21 levels in cell supernatants and cell-free control samples were measured using the ALPHALISA assay kit from Perkin Elmer, following the manufacturer's instructions. The assay was run at room temperature in 384-well ALPHAPLATES (cat. 6005350; Boston, MA). Briefly, immediately after transferring the cell supernatant to the assay plate, anti-IL-21 acceptor beads were added with the CERTUS FLEX liquid handler (LEAP Technologies, Morrisville, NC). The plate was sealed, spun down and incubated for 30 minutes. After incubation, the seal was removed, anti-IL-21 biotinylated antibody was added with the CERTUS FLEX, and the plate was sealed again, spun down and incubated for 60 minutes. Next, the seal was removed, streptavidin-coated donor beads were added with the CERTUS FLEX, and the plate was sealed, spun down and incubated for another 60 minutes. Finally, the seal was removed and the plate was read using the ENVISION reader (Perkin Elmer, Boston, MA) set with an excitation filter of 680 nm and an emission filter of 615 nm. Two independent IL-21 standard dilution curves were run per plate with analyte provided in the ALPHALISA kit.
For estimation of the assay performance, Z′ values were calculated for each plate, comparing positive and negative controls. […]

[2] = Hepatocyte intrinsic clearance assay, mouse hepatocytes; type: in vitro ADME; conditions: male, IRC/CD-1, cryopreserved mouse hepatocytes; Mouse Hepatocytes, 1 μM test compound
Source text: The liver is an important organ in the body for drug metabolism. This Example describes hepatocyte intrinsic clearance assays using both human and mouse hepatocytes to evaluate the metabolic stability of the indole compounds disclosed herein. The parameters measured include t1/2 (half-life), CLint (intrinsic clearance), and EH (hepatic extraction ratio).
Testosterone (Lot FE111011-01) was obtained from Cerilliant (Round Rock, TX). 7-hydroxycoumarin (Lot 11631ED) was obtained from Sigma Aldrich (St. Louis, MO). Cryopreserved human hepatocytes pooled from ten donor males (X008001), cryopreserved male IRC/CD-1 mouse hepatocytes (M005052), INVITROGRO HI Medium (incubation), and INVITROGRO HT Medium (thawing) were obtained from Bioreclamation IVT (Baltimore, MD). All solvents were obtained from commercial sources and used without further purification.
Each test compound was prepared as a 1 mM stock solution in DMSO. A 2 μM solution of test compound and positive controls were prepared in INVITROGRO HI Medium (incubation). These solutions were pre-warmed in a sterile incubator set to maintain 37° C., 5% CO2, and 98% humidity. Cryopreserved hepatocytes were prepared at a concentration of 2×10^6 living cells/mL in incubation media and pre-warmed in the incubator. The compound solutions and hepatocyte mixtures were then combined at a ratio of 1:1 (v:v). The final volume of the reaction mixture was 750 μL, containing 1 μM test compound (10 μM for 7-hydroxycoumarin) and […]. The reaction mixture was placed in the incubator on a plate shaker. After 0, 15, 30, 60, 90, and 120 minutes of incubation, 100 μL of reaction mixtures were removed from the incubation plate and mixed with 150 μL of ice-cold acetonitrile in a designated well of a 96-well crash plate. The 96-well crash plate was placed on ice for 15 min, and samples were centrifuged (3,600 RPM, 10 min, 4° C.) to precipitate protein. The supernatants were diluted 1:1 (v:v) with water containing 0.15 μM verapamil and/or 1 μM tolbutamide (internal standards for positive and negative modes, respectively) in a 96-well shallow injection plate. This plate was sealed for LC-MS analysis. All measurements were done in duplicate.
The residual compound remaining (% R) was determined from LC-MS peak areas by comparison to the zero time point. Metabolic half-life (t1/2) and intrinsic clearance (CLint) values were calculated from the slope of the plot of ln (% R) vs. time and the concentration of hepatocytes present in the incubation. Percent remaining at 60 minutes was calculated by plugging in the 60 minute value into the slope equation generated by the percent remaining time points.
In vivo hepatic clearance CLH was calculated using the well stirred liver model according to the following equation:
[formula] where QH is the total liver blood flow, fu is unbound fraction of the drug, and CL′int is defined as follows: CL′int=CLint×(10^6 cells/g of liver weight)×(g liver weight/kg of body weight). In the first approximation, used in this study, fu=1.
Hepatic extraction ratio EH was calculated using the following equation:
[formula] Corresponding physiological parameters used in calculations for all species are shown below in Table 5.

Question: With `Nc1nnc(-c2csc(C(=O)c3c[nH]c4ccc(F)cc34)n2)o1` [ARI-148, (4-(5-amino-1,3,4-oxadiazol-2-yl)thiazol-2-yl)(5-fluoro-1H-indol-3-yl)methanone] as the compound, how does the IC50 [1] read?
Answer: 5.9 nM

Question: What about the half-life at 1 μM [2] of the same compound?
Answer: 3.17 h

Question: Which IC50 [1] does the source give for `CCC(=O)c1csc(C(=O)c2c[nH]c3cc(F)c(F)cc23)n1` [ARI-149, 1-(2-(5,6-difluoro-1H-indole-3-carbonyl)thiazol-4-yl)propan-1-one] here?
Answer: 30.3 nM

Question: And the half-life at 1 μM [2]?
Answer: 3.97 h

Source: patent US11891386B2, “Indole compounds and their use” (ARIAGEN, INC., priority 2017, dated 2024)
